# Test results taken from ChEMBL document CHEMBL2021792, “Tetrahydro-naphthols as orally available TRPV1 inhibitors” (Bioorg Med Chem Lett, 2012).
# Experiments:
# [1] = molecular target: Transient receptor potential cation channel subfamily V member 1 (Homo sapiens, UniProt Q8NER1); test: Antagonist activity at human TRPV1 expressed in CHOluc9aeq cells assessed as inhibition of capsaicin-stimulated response by aequorin and CRE-lucifearase reporter gene assay; format: functional, cell-based
# [2] = AUC in rat at 1 mg/kg, po; format: ADME, organism-based; design: dose 1 mg/kg, route oral; conditions: plasma
# [3] = Oral bioavailability in rat at 1 mg/kg; format: ADME, organism-based; conditions: in vivo
# Plasma = test: Unbound fraction in rat plasma; format: ADME, cell-free
# Chain of Transient receptor potential cation channel subfamily V member 1 (Q8NER1 whole entry): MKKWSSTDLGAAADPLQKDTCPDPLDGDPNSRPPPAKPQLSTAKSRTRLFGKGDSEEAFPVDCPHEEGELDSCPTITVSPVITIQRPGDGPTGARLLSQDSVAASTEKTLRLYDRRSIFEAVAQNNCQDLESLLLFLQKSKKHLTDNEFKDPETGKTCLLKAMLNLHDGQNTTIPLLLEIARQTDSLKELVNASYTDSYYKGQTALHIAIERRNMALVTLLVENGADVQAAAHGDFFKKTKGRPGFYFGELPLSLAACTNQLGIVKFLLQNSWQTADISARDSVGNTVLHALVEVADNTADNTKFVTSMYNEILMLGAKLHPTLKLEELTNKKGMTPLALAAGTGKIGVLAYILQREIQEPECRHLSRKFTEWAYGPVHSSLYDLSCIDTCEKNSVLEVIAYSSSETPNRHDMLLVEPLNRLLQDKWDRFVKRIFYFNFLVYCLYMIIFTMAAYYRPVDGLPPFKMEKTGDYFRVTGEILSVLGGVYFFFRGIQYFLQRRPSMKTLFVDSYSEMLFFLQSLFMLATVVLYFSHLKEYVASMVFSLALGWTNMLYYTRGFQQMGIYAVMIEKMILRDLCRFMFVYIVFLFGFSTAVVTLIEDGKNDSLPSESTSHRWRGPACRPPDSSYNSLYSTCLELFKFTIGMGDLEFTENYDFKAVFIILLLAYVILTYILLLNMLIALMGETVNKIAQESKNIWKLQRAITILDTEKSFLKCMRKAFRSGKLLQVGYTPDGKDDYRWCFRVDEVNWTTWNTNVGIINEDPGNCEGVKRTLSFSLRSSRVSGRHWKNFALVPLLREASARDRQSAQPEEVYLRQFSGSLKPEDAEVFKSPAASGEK
Compound,IC50 [1] [nM],AUC [2] [ng·h/mL],also measured
CC(=O)Nc1ccc2cccc(NC(=O)Nc3ccc(Cl)c(C(F)(F)F)c3)c2c1,530,1590,–
O=C(Nc1ccc(Cl)c(C(F)(F)F)c1)Nc1ccccc1CCCO,220,–,–
O=C(Nc1ccc(Cl)c(C(F)(F)F)c1)Nc1cccc2ccc(C(=O)O)cc12,84,–,–
NS(=O)(=O)c1ccc2cccc(NC(=O)Nc3ccc(Cl)c(C(F)(F)F)c3)c2c1,710,–,–
O=C(Nc1cccc(CCO)c1)Nc1ccc(Cl)c(C(F)(F)F)c1,230,75,–
O=C(Nc1ccc(Cl)c(C(F)(F)F)c1)Nc1cccc2nn[nH]c12,180,–,–
NS(=O)(=O)c1ccccc1NC(=O)Nc1ccc(Cl)c(C(F)(F)F)c1,> 1000,–,–
O=C(Nc1ccc(Cl)c(C(F)(F)F)c1)Nc1ccccc1CO,330,–,–
NS(=O)(=O)Cc1ccccc1NC(=O)Nc1ccc(Cl)c(C(F)(F)F)c1,460,–,–
NCCc1ccccc1NC(=O)Nc1ccc(Cl)c(C(F)(F)F)c1,> 1000,–,–
CS(=O)(=O)Nc1ccc2cccc(NC(=O)Nc3ccc(Cl)c(C(F)(F)F)c3)c2c1,> 1000,709,–
CC1CCc2cccc(NC(=O)Nc3ccc(Cl)c(C(F)(F)F)c3)c2C1 (racemic),93,–,–
O=C(Nc1ccc(Cl)c(C(F)(F)F)c1)Nc1ccc2ccc(O)cc2c1,130,–,–
Nc1cc2c(NC(=O)Nc3ccc(Cl)c(C(F)(F)F)c3)cccc2cc1Cl,> 1000,–,–
O=C(Nc1ccc(Cl)c(C(F)(F)F)c1)Nc1cccc2c1CC(CO)CC2 (racemic),87,–,–
O=C(Nc1ccc(Cl)c(C(F)(F)F)c1)Nc1cccc2c1CC(O)CC2 (racemic),–,650,bioavailability [3]: 74%; Fu (Plasma): 0.28%
O=C(Nc1ccc(Cl)c(C(F)(F)F)c1)Nc1cccc2ccc(NCc3ccccc3)cc12,140,12,–

# Further lines, with some results ahead:
IC50 [1] [nM],AUC [2] [ng·h/mL],Compound,also measured
56,374,O=C(Nc1ccc(Cl)c(C(F)(F)F)c1)Nc1ccccc1CCO,–
45,–,O=C(Nc1ccc(Cl)c(C(F)(F)F)c1)Nc1cccc2c(O)cccc12,–
33,530,O=C(Nc1ccc(Cl)c(C(F)(F)F)c1)Nc1cccc2[nH]ccc12,–
16,–,Cc1cccc(NC(=O)Nc2ccc(Cl)c(C(F)(F)F)c2)c1CCO,–
30,125,CNc1ccc2cccc(NC(=O)Nc3ccc(Cl)c(C(F)(F)F)c3)c2c1,–
9.1,–,O=C(Nc1ccc(Cl)c(C(F)(F)F)c1)Nc1cccc2ccc(O)c(F)c12,–
34,217,Nc1ccc2cccc(NC(=O)Nc3ccc(Cl)c(C(F)(F)F)c3)c2c1,–
32,–,O=C(Nc1ccc(Cl)c(C(F)(F)F)c1)Nc1cccc2nc(C(F)(F)F)[nH]c12,–
58,–,Cc1nc2cccc(NC(=O)Nc3ccc(Cl)c(C(F)(F)F)c3)c2[nH]1,–
67,176,O=C(Nc1ccc(Cl)c(C(F)(F)F)c1)Nc1cccc2cc[nH]c12,–
18,–,O=C(Nc1ccc(Cl)c(C(F)(F)F)c1)Nc1cccc2cc(O)ccc12,–
